Laboratory results reported in a melting point compilation (Tetko et al.; mined from patent text by program, amines drawn as free bases though some values may be those of a salt).

melting point [°C]	SMILES
163 to 165	CCN(c1ccc(Cl)cc1C(=O)O)S(=O)(=O)c1ccc(C)cc1
135 to 137	O=[N+]([O-])c1ccc(C(O)CSCc2ccncc2)cc1 (stereo not drawn)
71.5 to 73	CC1CC(=O)N[C@@H]2CCc3cc(Cl)ccc3[C@@H]12 (stereo partly drawn)
75 to 76.5	CCC(C)COc1ccc(-c2ccc(O)cc2)cc1Br (stereo not drawn)
146 to 147	COc1ccc2c(c1)c(Cc1cc(=O)n(C)[nH]1)c(C)n2C(=O)c1ccc(Cl)cc1
250 to 253	Cc1ccc(-c2csc(NC(=O)c3nnn[nH]3)n2)cc1
81 to 82	CC(C)n1nc(OCc2ccccc2)cc1CO
192 to 194	COc1ccc(S(=O)(=O)N(Cc2cccnc2)c2c(C(=O)O)cnc3c2c(C)nn3-c2ccccc2)cc1
211 to 212	CN1CCN(c2c(F)cc3c(=O)c(C(=O)O)cn(C4COC4)c3c2Cl)CC1
32 to 32.5	CCCCC(=O)/C=C/c1ccccc1
85	CC(=O)OCC(=O)c1ccc(C)cc1
96	Ic1cccc(C=Cc2ccccc2)c1
130 to 132	COC1C(c2ccccc2)=C(c2ccc(S(C)(=O)=O)cc2)C1(C)C (stereo not drawn)
256 to 257	CCOc1cc(-n2nc(C(=O)O)cc2-c2ccc(-c3ccco3)cc2)ccc1S(C)(=O)=O
121 to 124	Cc1cc(C)cc(C(=O)N2CC[C@H](NCc3ccnc4ccccc34)C[C@H]2Cc2ccc(Cl)c(Cl)c2)c1 (relative stereo)
115 to 117	CN(C)C(=O)C1=Cc2cccc(OC[C@@H]3CO3)c2OC1
88 to 90	COc1ccc(CC2=NC(C)(C)CO2)cc1[N+](=O)[O-]
209	O=C1c2ccc(OCCO)cc2C(=O)c2cc3ccccc3cc21
185 to 186	COC(=O)c1cc(CCCCc2c(N)nc(N)nc2O)cs1
186 to 188	COc1ccnc(CCc2nc3cc(-c4ccc(S(=O)(=O)N5CCC(C)CC5)cc4)cnc3[nH]2)c1
106 to 108	COC(=O)CCC(C(=O)c1cccc(I)c1)c1ccccc1C (racemic)
86 to 90	N#CCc1cccc(C(=O)c2ccc(Cl)cc2)c1
127	Cc1ccnc(-c2cccc(Br)n2)n1
176 to 177	CC(=O)ON=C1Cc2ccccc2N(C(N)=O)c2ccccc21

melting point [°C]	SMILES
128 to 130	CC(C)Oc1ccc(-c2ccc3nnn(Cc4ccc5ncccc5c4)c3n2)cc1F
78	NN=C(c1ccc(F)cc1)c1ccc(F)cc1
192 to 193	CCOC(=O)Nc1c(C)cc(Cc2cnc(N)nc2N)cc1C
119 to 121	CSC(C(=O)N1CCOCC1)c1cccc(C(=O)c2ccccc2)c1N (stereo not drawn)
257 to 260	Cc1ccc(-c2noc3c(Cl)c(OCC(=O)O)ccc23)cc1
156 to 158	O=C(O)CCc1cc(Cl)ccc1C(=O)O
52	O=c1cc(-c2ccc(C(F)(F)F)cc2)cc(C(F)(F)F)o1
182 to 185	CCOC(=O)Cc1c(C(=O)O)c(C)cn1C
227 to 228	CCOC(=O)c1ccc(CNC(=O)c2csc3nc(C(=O)OCC)[nH]c(=O)c23)cc1
82 to 83	COc1cc(N)c(Cl)cc1C(=O)NCC1CCN(CCCOCc2ccccc2)CC1
134 to 142	CCCCCNc1nc(N(C)Cc2ccccc2)c2ncn(CC(=O)O)c2n1
101 to 102	COc1c(C)c(Cc2ccc(Cl)cc2)c(OC)c2ccccc12
288 to 290	Cc1nc2cc(NC(=O)c3cc4cc(-c5ccccc5)ncc4n3Cc3cccc(F)c3)ccc2n1C
151 to 153	CCC(=O)SCC(Cc1ccccc1)C(=O)Nc1cc(C)cc(C(=O)O)c1 (stereo not drawn)
280 to 282	O=S(=O)(O)CCCNC1CCCC1
131 to 133	O=C(C=Cc1ccc(F)c(F)c1)c1ccccc1O
214	Nc1ccccc1CN[C@@H](CSCC(=O)O)C(=O)O
91 to 92	C=CC(=O)OCCS(=O)(=O)c1ccc(O)cc1
170 to 172	CCOC(=O)c1c(C(F)(F)F)n(C)cc(-c2cc(OC(C)C)c(Cl)cc2F)c1=O
173 to 174	CCCc1c(OCCCOc2cc(NC(=O)C(=O)O)c(C(F)(F)F)cc2Cl)ccc(C(C)=O)c1O
150 to 151	CCOc1cccc(C(=O)N2CCc3cc(O)ccc3C2)c1
43 to 45	CC1CC(=O)C(C(=O)CCC2CCCO2)C(=O)O1 (stereo not drawn)
128 to 129	O=C(c1ccc(Br)cc1)N1CCN(c2ccncc2)CC1
100 to 102	O=C(O)Cc1cccc(Oc2ccc(Cl)cc2)c1O

melting point [°C]	SMILES
188	CCOc1ccc(C=Nc2ccc(S(=O)(=O)NC(C)(C)C)cc2)cc1
82 to 84	CC#CCOc1ccc(S(=O)(=O)NC2(C(=O)NO)CCCCC2)cc1
168	O=C(NC(=S)c1c(Cl)cccc1Cl)Nc1ccc(Cl)c(Cl)c1
66.5 to 67.5	CCCCCCCCCCCCCCCCCCNC(=O)OCC1(CNS(=O)(=O)CCCI)CCCO1 (stereo not drawn)
139 to 144	COc1ccc(-c2cc(C(=O)NCCCCCCCCc3ccccc3)cc(-c3cccc(C(F)(F)F)c3)c2OCC(=O)O)cc1
185 to 187	O=C(Nc1c(Cl)cccc1Cl)C1c2ccccc2COc2ccc(Br)cc21 (stereo not drawn)
134 to 135	CN(C)c1ncnc2c1ncn2Cc1c(F)cccc1Cl
52 to 54	CCn1c(=O)ccc2ccccc21
222	CCOc1ncc(C(=O)O)c2ccccc12
162 to 169	CC(C)(C)c1cc(C(CCc2ccccc2)NCP(=O)(O)O)cc(C(C)(C)C)c1O (stereo not drawn)
129 to 131	C[C@@H](c1ccc(Br)cc1)N(CC[C@](O)(CC(C)(C)O)c1ccccc1)C(=O)Oc1ccccc1
> 290	COc1ccc2nc(O)nc(O)c2c1
97 to 98.5	CCN(c1nc(C)cc(C(=O)c2nccs2)n1)c1ccc(C(C)C)cc1Br
137 to 141	O=C(OCc1ccccc1)N1CCN(C(=O)C(Cc2ccc(O)cc2)NS(=O)(=O)c2cccc3cnccc23)CC1 (stereo not drawn)
100 to 101	O=Cc1cccnc1S(=O)(=O)c1ccc(Cl)cc1
152	COc1ccc(-c2nc(Oc3ccc(C)cc3)ncc2C(=O)N2CCOCC2)cc1OC
184	Cc1cn(C)c2c1Nc1ccccc1NC2=O
154 to 155	CC(C)(NC(=O)CCn1ccnc1)c1ccc(Cl)cc1
110 to 111	CC(C)C[C@H](O)[C@H](O)[C@@H](N)CC1CCCCC1
124 to 125	COc1cc2ccc(-c3ccccc3)cc2cc1SC
138 to 140	CCOP(=O)(CNC(=O)C[C@H]1O[C@H](c2cccc(OC)c2OC)c2cc(Cl)ccc2N(CC(C)(C)CO)C1=O)OCC
83 to 84	COc1ccc(-c2nn(CCCCCCBr)c(=O)c3ccccc23)cc1OC

SMILES	melting point [°C]
COc1ccc(C2=NN=C(C)C(C)c3cc(OC)c(OC)cc32)cc1OC (stereo not drawn)	201 to 203
CCOC(=O)c1nn(Cc2cn(C(c3ccccc3)(c3ccccc3)c3ccccc3)cn2)c2cc(OC)c(OC)cc12	184 to 186
Cc1nnc2n1-c1sc(CCc3ccc(Cl)cc3)cc1C(c1ccccc1Cl)=NC2	162 to 164
